Results reported in patent US10519152B2, “Compounds and their use in treating cancer” (AstraZeneca AB, priority 2017, dated 2019).

Biological target: T1, Estrogen Receptor (ERα) in MCF-7 human ductal carcinoma breast cell line (Homo sapiens, UniProt P03372)
T1 construct: endogenous in cells; host or cells: MCF-7
T1 sequence (P03372 1-595): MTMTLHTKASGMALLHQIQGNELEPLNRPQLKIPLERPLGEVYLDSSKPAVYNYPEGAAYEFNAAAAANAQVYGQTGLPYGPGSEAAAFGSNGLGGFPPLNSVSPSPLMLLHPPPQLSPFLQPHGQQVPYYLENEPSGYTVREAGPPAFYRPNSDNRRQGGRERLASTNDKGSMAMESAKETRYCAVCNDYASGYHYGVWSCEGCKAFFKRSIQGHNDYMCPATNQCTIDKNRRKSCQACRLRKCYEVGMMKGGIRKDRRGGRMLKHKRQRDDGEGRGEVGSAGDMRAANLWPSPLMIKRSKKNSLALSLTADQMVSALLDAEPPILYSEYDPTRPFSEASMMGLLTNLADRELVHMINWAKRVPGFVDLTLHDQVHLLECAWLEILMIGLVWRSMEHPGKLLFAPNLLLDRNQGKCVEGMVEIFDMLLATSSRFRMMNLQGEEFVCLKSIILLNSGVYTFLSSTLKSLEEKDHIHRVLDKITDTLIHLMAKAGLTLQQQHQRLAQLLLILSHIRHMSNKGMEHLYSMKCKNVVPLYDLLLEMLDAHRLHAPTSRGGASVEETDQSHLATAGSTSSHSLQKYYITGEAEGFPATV
Assay: MCF-7 ER degradation assay (cell based immuno-fluorescence)
Conditions: MCF-7 cells; for ER degradation ≥ 90% at 0.3 μM: ER degradation by fulvestrant at 0.3 μM is defined as 100%; for DC50: 18-22 hours incubation, 50% reduction of ERα expression, single experiment or average of two or more, read-out: MCF-7 ER degradation IC50
Outline: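 MCF-7 human ductal carcinoma breast cells were seeded at 3.75×10^4 cells per mL (40 μL per well) in 384 well plates with phenol red free DMEM containing 2 mM L-Glutamine and 5% (v/v) Charcoal/Dextran treated foetal calf serum. After overnight culture, compounds were acoustically dispensed, incubated 18-22 hours, then cells were formaldehyde-fixed and immunostained for ERα.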

Cc1ncsc1-c1ccc(CNC(=O)[C@@H]2C[C@@H](O)CN2C(=O)[C@@H](NC(=O)C2(OCCCCCCOc3cc(F)c([C@@H]4c5[nH]c6ccccc6c5C[C@@H](C)N4CC(C)(C)F)c(F)c3)CC2)C(C)(C)C)cc1 [Example 118, (2S,4R)-1-((S)-2-(1-((6-(3,5-difluoro-4-((1R,3R)-2-(2-fluoro-2-methylpropyl)-3-methyl-2,3,4,9-tetrahydro-1H-pyrido[3,4-b]indol-1-yl)phenoxy)hexyl)oxy)cyclopropane-1-carboxamido)-3,3-dimethylbutanoyl)-4-hydroxy-N-(4-(4-methylthiazol-5-yl)benzyl)pyrrolidine-2-carboxamide]
ER degradation ≥ 90% at 0.3 μM: •
DC50: 4.7 nM

Cc1ncsc1-c1ccc(CNC(=O)[C@@H]2C[C@@H](O)CN2C(=O)[C@@H](NC(=O)COCCOCCCCCOc2cnc([C@@H]3c4[nH]c5ccccc5c4C[C@@H](C)N3CC(F)(F)F)c(F)c2)C(C)(C)C)cc1 [Example 165, (2S,4R)-1-((S)-2-(2-(2-((5-((5-Fluoro-6-((1S,3R)-3-methyl-2-(2,2,2-trifluoroethyl)-2,3,4,9-tetrahydro-1H-pyrido[3,4-b]indol-1-yl)pyridin-3-yl)oxy)pentyl)oxy)ethoxy)acetamido)-3,3-dimethylbutanoyl)-4-hydroxy-N-(4-(4-methylthiazol-5-yl)benzyl)pyrrolidine-2-carboxamide]
ER degradation ≥ 90% at 0.3 μM: ••
DC50: 4.4 nM

Cc1ncsc1-c1ccc(CNC(=O)[C@@H]2C[C@@H](O)CN2C(=O)[C@@H](NC(=O)COCCCCOCCOc2cc(F)c([C@@H]3c4[nH]c5ccccc5c4C[C@@H](C)N3CC(C)(C)F)c(F)c2)C(C)(C)C)cc1 [Example 16, (2S,4R)-1-((S)-2-(2-(4-(2-(3,5-Difluoro-4-((1R,3R)-2-(2-fluoro-2-methylpropyl)-3-methyl-2,3,4,9-tetrahydro-1H-pyrido[3,4-b]indol-1-yl)phenoxy)ethoxy)butoxy)acetamido)-3,3-dimethylbutanoyl)-4-hydroxy-N-(4-(4-methylthiazol-5-yl)benzyl)pyrrolidine-2-carboxamide]
ER degradation ≥ 90% at 0.3 μM: ••
DC50: 0.8 nM

Cc1ncsc1-c1ccc(CNC(=O)[C@@H]2C[C@@H](O)CN2C(=O)[C@@H](NC(=O)COCCCCCCCCOc2ccc([C@@H]3c4[nH]c5ccccc5c4C[C@@H](C)N3CC(F)F)nc2)C(C)(C)C)cc1 [Example 13, (2S,4R)-1-((S)-2-(2-((8-((6-((1S,3R)-2-(2,2-Difluoroethyl)-3-methyl-2,3,4,9-tetrahydro-1H-pyrido[3,4-b]indol-1-yl)pyridin-3-yl)oxy)octyl)oxy)acetamido)-3,3-dimethylbutanoyl)-4-hydroxy-N-(4-(4-methylthiazol-5-yl)benzyl)pyrrolidine-2-carboxamide]
ER degradation ≥ 90% at 0.3 μM: •
DC50: 3.7 nM

Cc1ncsc1-c1ccc(CNC(=O)[C@@H]2C[C@@H](O)CN2C(=O)[C@@H](NC(=O)COCCC(C)(C)CCOc2cc(F)c([C@@H]3c4[nH]c5ccccc5c4C[C@@H](C)N3CC(C)(C)F)c(F)c2)C(C)(C)C)cc1 [Example 23, (2S,4R)-1-((S)-2-(2-((5-(3,5-Difluoro-4-((1R,3R)-2-(2-fluoro-2-methylpropyl)-3-methyl-2,3,4,9-tetrahydro-1H-pyrido[3,4-b]indol-1-yl)phenoxy)-3,3-dimethylpentyl)oxy)acetamido)-3,3-dimethylbutanoyl)-4-hydroxy-N-(4-(4-methylthiazol-5-yl)benzyl)pyrrolidine-2-carboxamide]
ER degradation ≥ 90% at 0.3 μM: ••
DC50: 1 nM

Cc1ncsc1-c1ccc(CNC(=O)[C@@H]2C[C@@H](O)CN2C(=O)[C@@H](NC(=O)COCCCCCCCOc2cc(F)c([C@@H]3c4[nH]c5ccccc5c4C[C@@H](C)N3CC(C)(C)F)c(F)c2)C(C)(C)C)cc1 [Example 7, (2S,4R)-1-((S)-2-(2-((7-(3,5-Difluoro-4-((1R,3R)-2-(2-fluoro-2-methylpropyl)-3-methyl-2,3,4,9-tetrahydro-1H-pyrido[3,4-b]indol-1-yl)phenoxy)heptyl)oxy)acetamido)-3,3-dimethylbutanoyl)-4-hydroxy-N-(4-(4-methylthiazol-5-yl)benzyl)pyrrolidine-2-carboxamide]
ER degradation ≥ 90% at 0.3 μM: ••
DC50: 1.6 nM

Cc1ncsc1-c1ccc([C@H](C)NC(=O)[C@@H]2C[C@@H](O)CN2C(=O)[C@@H](NC(=O)COCCCCCOCCOc2cc(F)c([C@@H]3c4[nH]c5ccccc5c4C[C@@H](C)N3CC(C)(C)F)c(F)c2)C(C)(C)C)cc1 [Example 157, (2S,4R)-1-((S)-2-(2-((5-(2-(3,5-Difluoro-4-((1R,3R)-2-(2-fluoro-2-methylpropyl)-3-methyl-2,3,4,9-tetrahydro-1H-pyrido[3,4-b]indol-1-yl)phenoxy)ethoxy)pentyl)oxy)acetamido)-3,3-dimethylbutanoyl)-4-hydroxy-N—((S)-1-(4-(4-methylthiazol-5-yl)phenyl)ethyl)pyrrolidine-2-carboxamide]
ER degradation ≥ 90% at 0.3 μM: ••
DC50: 0.4 nM

Cc1ncsc1-c1ccc(CNC(=O)[C@@H]2C[C@@H](O)CN2C(=O)[C@@H](NC(=O)C(F)(F)OCCOCCCCOc2cc(F)c([C@@H]3c4[nH]c5ccccc5c4C[C@@H](C)N3CC(C)(C)F)c(F)c2)C(C)(C)C)cc1 [Example 121, (2S,4R)-1-((S)-2-(2-(2-(4-(3,5-Difluoro-4-((1R,3R)-2-(2-fluoro-2-methylpropyl)-3-methyl-2,3,4,9-tetrahydro-1H-pyrido[3,4-b]indol-1-yl)phenoxy)butoxy)ethoxy)-2,2-difluoroacetamido)-3,3-dimethylbutanoyl)-4-hydroxy-N-(4-(4-methylthiazol-5-yl)benzyl)pyrrolidine-2-carboxamide]
ER degradation ≥ 90% at 0.3 μM: •
DC50: 2.6 nM
